Test results taken from patent US20060247320A1, “Compounds for inhibiting KSP kinesin activity” (priority 2005, published 2006).
pIC50: −log10 of the molar value.

Biological target: T1, KSP motor domain (Homo sapiens, UniProt P52732)
T1 sequence (P52732 18-359 limits assumed): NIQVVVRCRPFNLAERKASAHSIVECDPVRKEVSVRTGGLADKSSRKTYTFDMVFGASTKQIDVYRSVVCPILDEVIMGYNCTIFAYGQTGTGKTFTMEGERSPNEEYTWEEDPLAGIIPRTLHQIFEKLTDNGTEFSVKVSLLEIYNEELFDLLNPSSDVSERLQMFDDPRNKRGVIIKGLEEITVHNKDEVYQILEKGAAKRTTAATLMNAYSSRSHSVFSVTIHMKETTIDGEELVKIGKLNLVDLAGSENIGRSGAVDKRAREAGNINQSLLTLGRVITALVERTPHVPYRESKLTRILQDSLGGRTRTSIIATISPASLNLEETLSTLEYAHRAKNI
Test: biochemical
Details: IC50 (nM), KSP inhibitory activity, end-point assay; class symbols (Table 1)

| SMILES | IC50 [nM] |
| --- | --- |
| CC(C)(C)C1CCc2nc3sc(COC(N)=O)cc3cc2C1 (stereo not drawn) [Example 147] | 1000 to 10000 |
| CCOC(=O)c1sc2nc3c(cc2c1N)CC([Si](C)(C)C)CC3 (stereo not drawn) [Example 187, Ethyl 3-Amino-5,6,7,8-Tetrahydro-6-(Trimethylsilyl)thieno[2,3-b]quinoline-2-Carboxylate] | > 10000 |

Same assay, conditions: KSP inhibitory activity, end-point assay; class symbols (Table 1); read-out: IC50

| SMILES | pIC50 |
| --- | --- |
| CC(C)(C)C1CCc2nc3sc(CO)cc3cc2C1 (stereo not drawn) [Example 144] | > 7.00 |
| CC(C)(C)C1CCc2nc3sc(CCl)cc3cc2C1 (stereo not drawn) [Example 145] | 6.00 to 7.00 |
| COCc1cc2cc3c(nc2s1)CCC(C(C)(C)C)C3 (stereo not drawn) [Example 146] | 5.00 to 6.00 |
| CC(C)(C)C1CCc2nc3sc(CC#N)cc3cc2C1 (stereo not drawn) [Example 148] | 5.00 to 6.00 |
| CC(C)(C)C1CCc2nc3sc(CC(N)=O)cc3cc2C1 (stereo not drawn) [Example 149] | 5.00 to 6.00 |
| CC(C)(C)C1CCc2nc3sc(CNCc4cc5cc6c(nc5s4)CCC(C(C)(C)C)C6)cc3cc2C1 (stereo not drawn) [Example 150] | 5.00 to 6.00 |
| CNCc1cc2cc3c(nc2s1)CCC(C(C)(C)C)C3 (stereo not drawn) [Example 151] | 5.00 to 6.00 |
| CN(C)Cc1cc2cc3c(nc2s1)CCC(C(C)(C)C)C3 (stereo not drawn) [Example 152] | 5.00 to 6.00 |
| CC(C)(C)C1CCc2nc3sc(CN)cc3cc2C1 (stereo not drawn) [Example 153] | 5.00 to 6.00 |
| CC(=O)NCc1cc2cc3c(nc2s1)CCC(C(C)(C)C)C3 (stereo not drawn) [Example 154] | 5.00 to 6.00 |
| CC(C)(C)C1CCc2nc3sc(CNC(=O)C4CC4)cc3cc2C1 (stereo not drawn) [Example 155] | 5.00 to 6.00 |
| CC(C)(C)C1CCc2nc3sc(CNC(N)=O)cc3cc2C1 (stereo not drawn) [Example 156] | 6.00 to 7.00 |
| CC(C)[C@@H](CO)NC(=O)c1cc2cc3c(nc2s1)CCC(C(C)(C)C)C3 (stereo partly drawn) [Example 157, 6-tert-Butyl-5,6,7,8-tetrahydrothieno[2,3-b]quinoline-2-carboxylic acid [(1S)-1-hydroxymethyl-2-methyl-propyl]amide] | < 5.00 |
| CC[C@@H](CO)NC(=O)c1cc2cc3c(nc2s1)CCC(C(C)(C)C)C3 (stereo partly drawn) [Example 158] | < 5.00 |
| CC(C)(C)C1CCc2nc3sc(C(=O)N[C@H](CO)Cc4ccccc4)cc3cc2C1 (stereo partly drawn) [Example 159] | < 5.00 |
| CC(C)(C)C1CCc2nc3sc(C(=O)N[C@H](CO)c4ccccc4)cc3cc2C1 (stereo partly drawn) [Example 160] | 5.00 to 6.00 |
| CC(C)(C)C1CCc2nc3sc(C(=O)N[C@H](CO)Cc4ccc(O)cc4)cc3cc2C1 (stereo partly drawn) [Example 161, 6-tert-Butyl-5,6,7,8-tetrahydrothieno[2,3-b]quinoline-2-carboxylic acid [2-hydroxy-(1S)-1-(4-hydroxybenzyl)ethyl]amide] | < 5.00 |
| CC(C)[C@@H](C#N)NC(=O)c1cc2cc3c(nc2s1)CCC(C(C)(C)C)C3 (stereo partly drawn) [Example 162, 6-tert-Butyl-5,6,7,8-tetrahydrothieno[2,3-b]quinoline-2-carboxylic acid [(1S)-1-cyano-2-methylpropyl]amide] | < 5.00 |
| CC(C)(C)C1CCc2nc3sc(C(=O)N[C@H](C#N)Cc4ccccc4)cc3cc2C1 (stereo partly drawn) [Example 163, 6-tert-Butyl-5,6,7,8-tetrahydrothieno[2,3-b]quinoline-2-carboxylic acid [(1S)-1-cyano-2-phenylethyl)amide] | < 5.00 |
| CC(C)(C)C1CCc2nc3sc(C(=O)N[C@H](C#N)Cc4ccc(O)cc4)cc3cc2C1 (stereo partly drawn) [Example 164] | 6.00 to 7.00 |
| CC(C)(C)C1CCc2nc3sc(C(=O)N[C@H](C#N)c4ccccc4)cc3cc2C1 (stereo partly drawn) [Example 165] | < 5.00 |

| SMILES | pIC50 |
| --- | --- |
| CC[C@@H](C#N)NC(=O)c1cc2cc3c(nc2s1)CCC(C(C)(C)C)C3 (stereo partly drawn) [Example 166, 6-tert-Butyl-5,6,7,8-tetrahydrothieno[2,3-b]quinoline-2-carboxylic acid [(1S)-1-cyanopropyl)amide] | < 5.00 |
| CC(C)(C)C1CCc2nc3sc(C(=O)NCC#N)cc3cc2C1 (stereo not drawn) [Example 167, 6-tert-Butyl-5,6,7,8-tetrahydrothieno[2,3-b]quinoline-2-carboxylic acid cyanomethyl-amide] | 6.00 to 7.00 |
| CC(C)(C)C1CCc2nc3sc(C(=O)NCC(=N)N)cc3cc2C1 (stereo not drawn) [Example 168, 6-tert-Butyl-5,6,7,8-tetrahydrothieno[2,3-b]quinoline-2-carboxylic acid carbamimidoylmethylamide] | > 7.00 |
| C[C@H](NC(=O)c1cc2cc3c(nc2s1)CCC(C(C)(C)C)C3)C(=N)N (stereo partly drawn) [Example 169] | > 7.00 |
| CC[C@H](NC(=O)c1cc2cc3c(nc2s1)CCC(C(C)(C)C)C3)C(=N)N (stereo partly drawn) [Example 170] | 6.00 to 7.00 |
| CC(C)[C@H](NC(=O)c1cc2cc3c(nc2s1)CCC(C(C)(C)C)C3)C(=N)N (stereo partly drawn) [Example 171] | 5.00 to 6.00 |
| CC(C)(C)C1CCc2nc3sc(C(=O)N[C@H](C(=N)N)c4ccccc4)cc3cc2C1 (stereo partly drawn) [Example 172] | 6.00 to 7.00 |
| CC(C)(C)C1CCc2nc3sc(C(=O)N[C@@H](Cc4ccccc4)C(=N)N)cc3cc2C1 (stereo partly drawn) [Example 173] | 5.00 to 6.00 |
| CC(C)(C)C1CCc2nc3sc(C(=O)N[C@@H](Cc4ccc(O)cc4)C(=N)N)cc3cc2C1 (stereo partly drawn) [Example 174] | 5.00 to 6.00 |
| CC(C)[C@@H](CN)NC(=O)c1cc2cc3c(nc2s1)CCC(C(C)(C)C)C3 (stereo partly drawn) [Example 175, 6-tert-butyl-5,6,7,8-tetrahydrothieno[2,3-b]quinoline-2-carboxylic acid [(1S)-1-aminomethyl-2-methylpropyl)amide] | 5.00 to 6.00 |
| C[C@@H](CN)NC(=O)c1cc2cc3c(nc2s1)CCC(C(C)(C)C)C3 (stereo partly drawn) [Example 176] | > 7.00 |
| CCC(CN)NC(=O)c1cc2cc3c(nc2s1)CCC(C(C)(C)C)C3 (stereo not drawn) [Example 177] | > 7.00 |
| CC(C)(C)C1CCc2nc3sc(C(=O)NC(CN)c4ccccc4)cc3cc2C1 (stereo not drawn) [Example 178] | > 7.00 |
| CC(C)(C)C1CCc2nc3sc(C(=O)N[C@H](CN)Cc4ccccc4)cc3cc2C1 (stereo partly drawn) [Example 179] | 6.00 to 7.00 |
| CC(C)(C)C1CCc2nc3sc(C(=O)N[C@H](CN)Cc4ccc(O)cc4)cc3cc2C1 (stereo partly drawn) [Example 180] | 6.00 to 7.00 |
| CC(C)(C)C1CCc2nc3sc(-c4ncc[nH]4)cc3cc2C1 (stereo not drawn) [Example 181, 6-tert-Butyl-2-(1H-imidazol-2-yl)-5,6,7,8-tetrahydrothieno[2,3-b]quinoline] | 6.00 to 7.00 |
| CC(C)(C)C1CCc2nc3sc(-c4nnc[nH]4)cc3cc2C1 (stereo not drawn) [Example 182, 6-tert-Butyl-2-(4H-[1,2,4]triazol-3-yl)-5,6,7,8-tetrahydrothieno[2,3-b]quinoline] | 6.00 to 7.00 |
| CC(C)(C)C1CCc2nc3sc(-c4ncc(CO)[nH]4)cc3cc2C1 (stereo not drawn) [Example 183, [2-(6-tert-Butyl-5,6,7,8-tetrahydrothieno[2,3-b]quinolin-2-yl)-3H-imidazol-4-yl]methanol] | 5.00 to 6.00 |
| CC(C)(C)C1CCc2nc3sc(-c4ncc(CN)[nH]4)cc3cc2C1 (stereo not drawn) [Example 184, [2-(6-tert-Butyl-5,6,7,8-tetrahydrothieno[2,3-b]quinolin-2-yl)-3H-imidazol-4-yl]methylamine] | 6.00 to 7.00 |
| CC(C)(C)C1CCc2nc3sc(-c4ncc(CO)o4)cc3cc2C1 (stereo not drawn) [Example 185, [2-(6-tert-Butyl-5,6,7,8-tetrahydrothieno[2,3-b]quinolin-2-yl)oxazol-5-yl]methanol] | 5.00 to 6.00 |
| CC(C)(C)C1CCc2nc3sc(-c4ncc(CN)o4)cc3cc2C1 (stereo not drawn) [Example 186, [2-(6-tert-Butyl-5,6,7,8-tetrahydrothieno[2,3-b]quinolin-2-yl)oxazol-5-yl]methylamine] | 5.00 to 6.00 |

Same assay, conditions: exact IC50 values, end-point assay (Table 2); read-out: IC50

| SMILES | pIC50 |
| --- | --- |
| CC(C)(C)C1CCc2nc3sc(CO)cc3cc2C1 (stereo not drawn) [Example 144] | 7.22 |
| CC(C)(C)C1CCc2nc3sc(C(=O)NCC(=N)N)cc3cc2C1 (stereo not drawn) [Example 168, 6-tert-Butyl-5,6,7,8-tetrahydrothieno[2,3-b]quinoline-2-carboxylic acid carbamimidoylmethylamide] | 8.10 |
| CCC(CN)NC(=O)c1cc2cc3c(nc2s1)CCC(C(C)(C)C)C3 (stereo not drawn) [Example 177] | 7.19 |
| CC(C)(C)C1CCc2nc3sc(C(=O)NC(CN)c4ccccc4)cc3cc2C1 (stereo not drawn) [Example 178] | 7.60 |
